Measured values from patent US20210317134A1, “UBIQUITIN-SPECIFIC-PROCESSING PROTEASE 7 (USP7) MODULATORS AND USES THEREOF” (RAPT THERAPEUTICS, INC., priority 2019, published 2021).
pIC50: −log10 of the molar value.

target: USP7 (Homo sapiens, UniProt Q93009); assay: USP7 inhibitory potency (Table 1); type: biochemical
Sequence (Q93009 whole entry): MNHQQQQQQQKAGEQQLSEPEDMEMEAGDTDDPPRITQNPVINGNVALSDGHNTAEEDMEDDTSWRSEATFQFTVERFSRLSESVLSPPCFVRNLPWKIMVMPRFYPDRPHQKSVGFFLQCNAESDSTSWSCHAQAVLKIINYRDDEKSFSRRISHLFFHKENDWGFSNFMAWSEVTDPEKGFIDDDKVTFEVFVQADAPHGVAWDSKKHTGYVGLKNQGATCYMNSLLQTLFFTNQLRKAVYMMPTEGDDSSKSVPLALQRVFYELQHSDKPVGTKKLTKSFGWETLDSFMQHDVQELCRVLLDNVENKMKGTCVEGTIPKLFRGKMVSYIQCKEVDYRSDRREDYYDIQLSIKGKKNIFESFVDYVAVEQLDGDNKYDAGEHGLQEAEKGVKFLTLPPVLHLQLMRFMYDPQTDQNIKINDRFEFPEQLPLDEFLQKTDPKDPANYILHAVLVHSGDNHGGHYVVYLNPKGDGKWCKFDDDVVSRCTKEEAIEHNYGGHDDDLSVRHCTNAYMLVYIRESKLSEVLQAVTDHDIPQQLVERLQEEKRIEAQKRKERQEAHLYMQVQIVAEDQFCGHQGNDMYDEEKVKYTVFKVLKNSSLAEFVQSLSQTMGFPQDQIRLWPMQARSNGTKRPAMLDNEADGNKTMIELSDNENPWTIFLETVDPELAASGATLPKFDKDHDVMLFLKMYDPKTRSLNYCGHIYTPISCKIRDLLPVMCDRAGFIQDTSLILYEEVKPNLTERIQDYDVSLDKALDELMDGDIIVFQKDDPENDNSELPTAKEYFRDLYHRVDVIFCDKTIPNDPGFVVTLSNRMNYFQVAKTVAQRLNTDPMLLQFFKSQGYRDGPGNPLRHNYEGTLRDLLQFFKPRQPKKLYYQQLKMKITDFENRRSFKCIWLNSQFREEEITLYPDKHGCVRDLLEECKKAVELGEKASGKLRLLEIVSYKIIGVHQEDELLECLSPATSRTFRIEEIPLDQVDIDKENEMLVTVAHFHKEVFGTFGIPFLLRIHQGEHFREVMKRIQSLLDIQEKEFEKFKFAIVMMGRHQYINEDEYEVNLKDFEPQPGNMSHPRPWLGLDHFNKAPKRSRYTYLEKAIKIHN

SMILES	pIC50
O=C(C1Cc2cc(Cl)c(Cl)c(-c3ccnc4[nH]ccc34)c2O1)N1CCNCC1 (centres unmarked) [(5,6-dichloro-7-(1H-pyrrolo[2,3-b]pyridin-4-yl)-2,3-dihydrobenzofuran-2-yl)(piperazin-1-yl)methanone]	5.00 to 6.00
Cc1cc(-c2cc(Cl)cc3c2OC(C(=O)N2CCNCC2)C3)ccn1 (centres unmarked) [(5-Chloro-7-(2-methylpyridin-4-yl)-2,3-dihydrobenzofuran-2-yl)(piperazin-1-yl)methanone]	4.52 to 5.00
CC1(C(=O)N2CCNCC2)Cc2cc(Cl)cc(-c3ccnc4[nH]ccc34)c2O1 (centres unmarked) [(5-chloro-2-methyl-7-(1H-pyrrolo[2,3-b]pyridin-4-yl)-2,3-dihydrobenzofuran-2-yl)(piperazin-1-yl)methanone]	5.00 to 6.00
O=C(C1Cc2cc(Cl)cc(-c3ccnc4cccnc34)c2O1)N1CCNCC1 (centres unmarked) [(5-chloro-7-(1,5-naphthyridin-4-yl)-2,3-dihydrobenzofuran-2-yl)(piperazin-1-yl)methanone]	4.52 to 5.00
O=C(C1Cc2cc(Cl)cc(-c3ccnc4ccncc34)c2O1)N1CCNCC1 (centres unmarked) [(5-chloro-7-(1,6-naphthyridin-4-yl)-2,3-dihydrobenzofuran-2-yl)(piperazin-1-yl)methanone]	4.52 to 5.00
O=C(C1Cc2cc(Cl)cc(-c3ccnc4[nH]ccc34)c2O1)N1CCC2(CC1)CNC2 (centres unmarked) [(5-chloro-7-(1H-pyrrolo[2,3-b]pyridin-4-yl)-2,3-dihydrobenzofuran-2-yl)(2,7-diazaspiro[3.5]nonan-7-yl)methanone]	5.00 to 6.00
CN1CCC(N2CCN(C(=O)C3Cc4cc(Cl)cc(-c5ccnc6[nH]ccc56)c4O3)CC2)CC1 (centres unmarked) [(5-chloro-7-(1H-pyrrolo[2,3-b]pyridin-4-yl)-2,3-dihydrobenzofuran-2-yl)(4-(1-methylpiperidin-4-yl)piperazin-1-yl)methanone]	4.52 to 5.00

The next lines start with the values.

pIC50	SMILES
5.00 to 6.00	O=C(C1Cc2cc(Cl)cc(-c3ccnc4[nH]ccc34)c2O1)N1CCC(O)(c2ccc(F)cc2Cl)CC1 (centres unmarked) [(4-(2-chloro-4-fluorophenyl)-4-hydroxypiperidin-1-yl)(5-chloro-7-(1H-pyrrolo[2,3-b]pyridin-4-yl)-2,3-dihydrobenzofuran-2-yl)methanone]
5.00 to 6.00	O=C(C1Cc2cc(Cl)cc(-c3ccnc4[nH]ccc34)c2O1)N1CCC(O)(Cc2ccccc2)CC1 (centres unmarked) [(4-benzyl-4-hydroxypiperidin-1-yl)(5-chloro-7-(1H-pyrrolo[2,3-b]pyridin-4-yl)-2,3-dihydrobenzofuran-2-yl)methanone]
4.52 to 5.00	O=C(C1Cc2cc(Cl)cc(-c3ccnc4[nH]ccc34)c2O1)N1CCN(c2ccccn2)CC1 (centres unmarked) [(5-Chloro-7-(1H-pyrrolo[2,3-b]pyridin-4-yl)-2,3-dihydrobenzofuran-2-yl)(4-(pyridin-2-yl)piperazin-1-yl)methanone]
5.00 to 6.00	O=C(C1Cc2cc(Cl)cc(-c3ccnc4[nH]ccc34)c2O1)N1CCC(O)(c2ccccc2F)CC1 (centres unmarked) [(5-chloro-7-(1H-pyrrolo[2,3-b]pyridin-4-yl)-2,3-dihydrobenzofuran-2-yl)(4-(2-fluorophenyl)-4-hydroxypiperidin-1-yl)methanone]
5.00 to 6.00	O=C(C1Cc2cc(Cl)cc(-c3ccnc4[nH]ccc34)c2O1)N1CCC(c2ccccc2O)CC1 (centres unmarked) [(5-chloro-7-(1H-pyrrolo[2,3-b]pyridin-4-yl)-2,3-dihydrobenzofuran-2-yl)(4-(2-hydroxyphenyl)piperidin-1-yl)methanone]
5.00 to 6.00	O=C(C1Cc2cc(Cl)cc(-c3ccnc4[nH]ccc34)c2O1)N1CCC(O)(c2ccc(Cl)cc2)CC1 (centres unmarked) [(5-chloro-7-(1H-pyrrolo[2,3-b]pyridin-4-yl)-2,3-dihydrobenzofuran-2-yl)(4-(4-chlorophenyl)-4-hydroxypiperidin-1-yl)methanone]
4.52 to 5.00	O=C(C1Cc2cc(Cl)cc(-c3ccnc4[nH]ccc34)c2O1)N1CCC(c2ccc(O)cc2)CC1 (centres unmarked) [(5-chloro-7-(1H-pyrrolo[2,3-b]pyridin-4-yl)-2,3-dihydrobenzofuran-2-yl)(4-(4-hydroxyphenyl)piperidin-1-yl)methanone]
